From patent EP3689885B1, “HIGHLY EFFECTIVE CONCENTRATES WITH PPDA AND THEIR USE IN STABILIZING MATERIALS IN ANIMAL EXCREMENTS” (SKW STICKSTOFFWERKE PIESTERITZ GmbH, priority 2019, dated 2020)
Entries after “also recorded” stand apart in the source; their conditions may differ.

What was measured:
[1] = Maximum solubility of PPDA in solvents / solvent mixtures; type: physicochemical
From the text: (§1) PPDA wurde bis zur maximalen Löslichkeit in die Lösungsmittel/ Lösungsmittelgemische eingebracht, die Lösungen wurden bei Raumtemperatur gelagert und der Wirkstoffgehalt (PPDA) nach 48 Wochen mittels HPLC überprüft.

[2] = Stability of the active ingredient (PPDA) in the solution, HPLC; type: physicochemical; conditions: room temperature, 483840 min
From the text: as §1

Urease = conditions: literature (Wenzel et al. 1983; Leinker 2007, laboratory screening); cited from earlier work

Compound: NP(N)(=O)Oc1ccccc1 [PPDA, Phenylphosphorsäurediamid]
- Löslichkeit ([1]; DMSO/Diethylenglycolmonomethylether, Anteil LM 1 20 %, room temperature): 3,0%
- Löslichkeit ([1]; DMSO/Diethylenglycolmonomethylether, Anteil LM 1 40 %, room temperature): 4,4%
- Löslichkeit ([1]; DMSO/Diethylenglycolmonomethylether, Anteil LM 1 60 %, room temperature): 7,8%
- Löslichkeit ([1]; DMSO/Diethylenglycolmonomethylether, Anteil LM 1 80 %, room temperature): 11,5%
- Löslichkeit ([1]; DMSO/Glycerinformal, Anteil LM 1 20 %, room temperature): 4,1%
- Löslichkeit ([1]; DMSO/Glycerinformal, Anteil LM 1 40 %, room temperature): 4,9%
- Löslichkeit ([1]; DMSO/Glycerinformal, Anteil LM 1 60 %, room temperature): 6,7%
- Löslichkeit ([1]; DMSO/Glycerinformal, Anteil LM 1 80 %, room temperature): 10,3%
- Löslichkeit ([1]; DMSO/Propylenglycolmonomethyl ether, Anteil LM 1 20 %, room temperature): 2,2%
- Löslichkeit ([1]; DMSO/Propylenglycolmonomethyl ether, Anteil LM 1 40 %, room temperature): 3,5%
- Löslichkeit ([1]; DMSO/Propylenglycolmonomethyl ether, Anteil LM 1 60 %, room temperature): 6,2%
- Löslichkeit ([1]; DMSO/Propylenglycolmonomethyl ether, Anteil LM 1 80 %, room temperature): 10,7%
- Löslichkeit ([1]; DMSO/Pyrrolidon, Anteil LM 1 20 %, room temperature): 6,0%
- Löslichkeit ([1]; DMSO/Pyrrolidon, Anteil LM 1 40 %, room temperature): 8,4%
- Löslichkeit ([1]; DMSO/Pyrrolidon, Anteil LM 1 60 %, room temperature): 9,9%
- Löslichkeit ([1]; DMSO/Pyrrolidon, Anteil LM 1 80 %, room temperature): 12,0%
- Löslichkeit ([1]; DMSO, room temperature): 11,5%
- Löslichkeit ([1]; Diethylenenglycolmonomethylether / Glycerinformal, Anteil LM 1 20 %, room temperature): 3,9%
- Löslichkeit ([1]; Diethylenenglycolmonomethylether / Glycerinformal, Anteil LM 1 40 %, room temperature): 3,3%
- Löslichkeit ([1]; Diethylenenglycolmonomethylether / Glycerinformal, Anteil LM 1 60 %, room temperature): 3,1%
- Löslichkeit ([1]; Diethylenenglycolmonomethylether / Glycerinformal, Anteil LM 1 80 %, room temperature): 2,6%
- Löslichkeit ([1]; Propylenglycol monomethylether / Glycerinformal, Anteil LM 1 20 %, room temperature): 2,8%
- Löslichkeit ([1]; Propylenglycol monomethylether / Glycerinformal, Anteil LM 1 40 %, room temperature): 2,7%
- Löslichkeit ([1]; Propylenglycol monomethylether / Glycerinformal, Anteil LM 1 60 %, room temperature): 2,2%
- Löslichkeit ([1]; Propylenglycol monomethylether / Glycerinformal, Anteil LM 1 80 %, room temperature): 1,5%
- Löslichkeit ([1]; Propylenglycol monomethylether / Pyrrolidon, Anteil LM 1 40 %, room temperature): 3,7%
- Löslichkeit ([1]; Propylenglycol monomethylether / Pyrrolidon, Anteil LM 1 60 %, room temperature): 2,9%
- Löslichkeit ([1]; Propylenglycol monomethylether / Pyrrolidon, Anteil LM 1 80 %, room temperature): 1,1%
- Löslichkeit ([1]; Pyrrolidon / Glycerinformal, Anteil LM 1 20 %, room temperature): 4,3%
- Löslichkeit ([1]; Tetraethylenglycol / Pyrrolidon, Anteil LM 1 40 %, room temperature): 5,5%
- Löslichkeit ([1]; Tetraethylenglycol / Pyrrolidon, Anteil LM 1 60 %, room temperature): 3,6%
- Löslichkeit ([1]; in most solvents generally known as good solvents for phosphoric acid amides (not named)): < 1%
- Wirkstoffwiederfindung nach 48 Wochen ([2]; saturated solution in DMSO): 81%
- Wirkstoffwiederfindung nach 48 Wochen ([2]; saturated solution in DMSO/Diethylenglycolmonomethylether, Anteil LM 1 20 %): 83%
- Wirkstoffwiederfindung nach 48 Wochen ([2]; saturated solution in DMSO/Diethylenglycolmonomethylether, Anteil LM 1 40 %): 85%
- Wirkstoffwiederfindung nach 48 Wochen ([2]; saturated solution in DMSO/Diethylenglycolmonomethylether, Anteil LM 1 60 %): 93%
- Wirkstoffwiederfindung nach 48 Wochen ([2]; saturated solution in DMSO/Diethylenglycolmonomethylether, Anteil LM 1 80 %): 80%
- Wirkstoffwiederfindung nach 48 Wochen ([2]; saturated solution in DMSO/Glycerinformal, Anteil LM 1 20 %): 82%
- Wirkstoffwiederfindung nach 48 Wochen ([2]; saturated solution in DMSO/Glycerinformal, Anteil LM 1 40 %): 91%
- Wirkstoffwiederfindung nach 48 Wochen ([2]; saturated solution in DMSO/Glycerinformal, Anteil LM 1 60 %): 92%
- Wirkstoffwiederfindung nach 48 Wochen ([2]; saturated solution in DMSO/Glycerinformal, Anteil LM 1 80 %): 86%
- Wirkstoffwiederfindung nach 48 Wochen ([2]; saturated solution in DMSO/Propylenglycolmonomethyl ether, Anteil LM 1 20 %): 100%
- Wirkstoffwiederfindung nach 48 Wochen ([2]; saturated solution in DMSO/Propylenglycolmonomethyl ether, Anteil LM 1 40 %): 100%
- Wirkstoffwiederfindung nach 48 Wochen ([2]; saturated solution in DMSO/Propylenglycolmonomethyl ether, Anteil LM 1 60 %): 95%
- Wirkstoffwiederfindung nach 48 Wochen ([2]; saturated solution in DMSO/Propylenglycolmonomethyl ether, Anteil LM 1 80 %): 89%
- Wirkstoffwiederfindung nach 48 Wochen ([2]; saturated solution in DMSO/Pyrrolidon, Anteil LM 1 20 %): 79%
- Wirkstoffwiederfindung nach 48 Wochen ([2]; saturated solution in DMSO/Pyrrolidon, Anteil LM 1 40 %): 88%
- Wirkstoffwiederfindung nach 48 Wochen ([2]; saturated solution in DMSO/Pyrrolidon, Anteil LM 1 60 %): 93%
- Wirkstoffwiederfindung nach 48 Wochen ([2]; saturated solution in DMSO/Pyrrolidon, Anteil LM 1 80 %): 92%
- Wirkstoffwiederfindung nach 48 Wochen ([2]; saturated solution in Diethylenenglycolmonomethylether / Glycerinformal, Anteil LM 1 20 %): 85%
- Wirkstoffwiederfindung nach 48 Wochen ([2]; saturated solution in Diethylenenglycolmonomethylether / Glycerinformal, Anteil LM 1 40 %): 89%
- Wirkstoffwiederfindung nach 48 Wochen ([2]; saturated solution in Diethylenenglycolmonomethylether / Glycerinformal, Anteil LM 1 60 %): 72%
- Wirkstoffwiederfindung nach 48 Wochen ([2]; saturated solution in Diethylenenglycolmonomethylether / Glycerinformal, Anteil LM 1 80 %): 73%
- Wirkstoffwiederfindung nach 48 Wochen ([2]; saturated solution in Propylenglycol monomethylether / Glycerinformal, Anteil LM 1 20 %): 93%
- Wirkstoffwiederfindung nach 48 Wochen ([2]; saturated solution in Propylenglycol monomethylether / Glycerinformal, Anteil LM 1 40 %): 100%
- Wirkstoffwiederfindung nach 48 Wochen ([2]; saturated solution in Propylenglycol monomethylether / Glycerinformal, Anteil LM 1 60 %): 100%
- Wirkstoffwiederfindung nach 48 Wochen ([2]; saturated solution in Propylenglycol monomethylether / Glycerinformal, Anteil LM 1 80 %): 100%
- Wirkstoffwiederfindung nach 48 Wochen ([2]; saturated solution in Propylenglycol monomethylether / Pyrrolidon, Anteil LM 1 40 %): 100%
- Wirkstoffwiederfindung nach 48 Wochen ([2]; saturated solution in Propylenglycol monomethylether / Pyrrolidon, Anteil LM 1 60 %): 100%
- Wirkstoffwiederfindung nach 48 Wochen ([2]; saturated solution in Propylenglycol monomethylether / Pyrrolidon, Anteil LM 1 80 %): 100%
- Wirkstoffwiederfindung nach 48 Wochen ([2]; saturated solution in Pyrrolidon / Glycerinformal, Anteil LM 1 20 %): 72%
- Wirkstoffwiederfindung nach 48 Wochen ([2]; saturated solution in Tetraethylenglycol / Pyrrolidon, Anteil LM 1 40 %): 87%
- Wirkstoffwiederfindung nach 48 Wochen ([2]; saturated solution in Tetraethylenglycol / Pyrrolidon, Anteil LM 1 60 %): 76%
- Wirksamkeit als Urease-Inhibitor (Urease): mittlerer Wirkungsstärke; also recorded: nur mittlere Wirksamkeit
